According to PubChem BioAssay (NCI):
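Step 1: Grow cells in 96-well plates. Step 2: Expose to compound for 48 hours at 5 concentrations. Step 3: Interpolate endpoints linearly; if unreached, use highest concentration. GI50 = concentration required for 50% inhibition of growth. Definition used: TGI = concentration required for complete inhibition of growth.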

Tests used:
Assay in all cases: NCI anticancer screen, dose series, 48 h
COLO 205 colon = tested on: COLO 205 colon
HL-60(TB) leukemia = tested on: HL-60(TB) leukemia
HT29 colon = tested on: HT29 colon
OVCAR-3 ovarian = tested on: OVCAR-3 ovarian
RXF 393 renal = tested on: RXF 393 renal
SK-MEL-2 melanoma = tested on: SK-MEL-2 melanoma
SK-MEL-28 melanoma = tested on: SK-MEL-28 melanoma
SW-620 colon = tested on: SW-620 colon
UACC-257 melanoma = tested on: UACC-257 melanoma

With `COCCOCC(=O)N(CCn1ccc(NC(c2ccccc2)(c2ccccc2)c2ccccc2)nc1=O)CCn1cnc2nc(N)[nH]c(=O)c21` the TGI (COLO 205 colon) was greater than 100 µM, the TGI (HL-60(TB) leukemia) was greater than 100 µM and the TGI (HT29 colon) was greater than 100 µM. The TGI (OVCAR-3 ovarian) was greater than 100 µM, the TGI (RXF 393 renal) was greater than 100 µM and the TGI (SK-MEL-2 melanoma) was greater than 100 µM. It also gave a TGI (SK-MEL-28 melanoma) greater than 100 µM, a TGI (SW-620 colon) greater than 100 µM and a TGI (UACC-257 melanoma) greater than 100 µM.

Work on `CC1=C(c2cc(C(=O)Nc3cccc(C(F)(F)F)c3)ncn2)Sc2ccccc2N1` yielded a TGI (COLO 205 colon) greater than 100 µM, a TGI (HL-60(TB) leukemia) greater than 100 µM and a TGI (HT29 colon) greater than 100 µM. For the same compound, the TGI (OVCAR-3 ovarian) was greater than 100 µM, the TGI (SK-MEL-2 melanoma) was greater than 100 µM and the TGI (SK-MEL-28 melanoma) was greater than 100 µM. It also gave a TGI (SW-620 colon) greater than 100 µM and a TGI (UACC-257 melanoma) greater than 100 µM.

In the case of `COc1ccc(/C(=N/NC(N)=O)C(c2ccc(OC)cc2)C2C(=O)Oc3ccccc32)cc1` (stereo not given), the TGI (COLO 205 colon) is reported as greater than 100 µM, the TGI (HL-60(TB) leukemia) is reported as greater than 100 µM and the TGI (HT29 colon) is reported as greater than 100 µM. It also gave a TGI (OVCAR-3 ovarian) greater than 100 µM, a TGI (RXF 393 renal) greater than 100 µM and a TGI (SK-MEL-28 melanoma) greater than 100 µM. For the same compound, the TGI (SW-620 colon) was greater than 100 µM and the TGI (UACC-257 melanoma) was greater than 100 µM.

`CC(C)(C)C(=O)O[C@@H]1COC2C(O)COC21` (stereo not given in full) was tested, and the TGI (COLO 205 colon) was greater than 100 µM, the TGI (HL-60(TB) leukemia) was greater than 100 µM and the TGI (HT29 colon) was greater than 100 µM. It also gave a TGI (OVCAR-3 ovarian) greater than 100 µM, a TGI (RXF 393 renal) greater than 100 µM and a TGI (SK-MEL-28 melanoma) greater than 100 µM. It also gave a TGI (SW-620 colon) greater than 100 µM and a TGI (UACC-257 melanoma) greater than 100 µM.

Compound `COc1cc(-c2cc(=O)c3cc(C)c(C)c(C(=O)O)c3o2)cc(OC)c1OC` has a TGI (COLO 205 colon) greater than 100 µM, a TGI (HT29 colon) greater than 100 µM and a TGI (OVCAR-3 ovarian) greater than 100 µM. For the same compound, the TGI (SK-MEL-2 melanoma) was greater than 100 µM, the TGI (SK-MEL-28 melanoma) was greater than 100 µM and the TGI (SW-620 colon) was greater than 100 µM. The TGI (UACC-257 melanoma) was greater than 100 µM.

In the case of `Cc1ccc2[nH]c3c(ncc4[nH]c5ccccc5c43)c2c1`, the TGI (COLO 205 colon) is reported as 34.3 µM, the TGI (HL-60(TB) leukemia) is reported as 36.3 µM and the TGI (HT29 colon) is reported as 24 µM. The TGI (OVCAR-3 ovarian) was greater than 10 µM, the TGI (RXF 393 renal) was 27.2 µM and the TGI (SK-MEL-2 melanoma) was 33.6 µM. For the same compound, the TGI (SK-MEL-28 melanoma) was 32 µM, the TGI (SW-620 colon) was 26.7 µM and the TGI (UACC-257 melanoma) was 33.2 µM.

Work on `CCC(C(=O)[O-])C(=O)[O-].CCC(C(=O)[O-])C(=O)[O-].N.N.NCCCCCCN.[Pt+4].[Pt+4]` yielded a GI50 (COLO 205 colon) of 0.883 µM, a TGI (COLO 205 colon) of 1.66 µM and a GI50 (HL-60(TB) leukemia) of 1.68 µM. It also gave a TGI (HL-60(TB) leukemia) of 4.63 µM, a GI50 (HT29 colon) of 9.01 µM and a TGI (HT29 colon) of 19.4 µM. For the same compound, the GI50 (OVCAR-3 ovarian) was 9 µM, the TGI (OVCAR-3 ovarian) was 16.3 µM and the GI50 (RXF 393 renal) was 4.49 µM. For the same compound, the TGI (RXF 393 renal) was 10.1 µM, the GI50 (SK-MEL-2 melanoma) was 8.4 µM and the TGI (SK-MEL-2 melanoma) was 16.9 µM. The GI50 (SK-MEL-28 melanoma) was 6.58 µM, the TGI (SK-MEL-28 melanoma) was 14.6 µM and the GI50 (SW-620 colon) was 0.9 µM. The TGI (SW-620 colon) was 1.71 µM, the GI50 (UACC-257 melanoma) was 6.14 µM and the TGI (UACC-257 melanoma) was 14 µM.

For `Cc1cc(C)c(S(=O)(=O)ONC(=O)OC(C)(C)C)c(C)c1`, the TGI (COLO 205 colon) was greater than 100 µM, the TGI (HL-60(TB) leukemia) was greater than 100 µM and the TGI (HT29 colon) was greater than 100 µM. The TGI (OVCAR-3 ovarian) was greater than 100 µM, the TGI (RXF 393 renal) was greater than 100 µM and the TGI (SK-MEL-2 melanoma) was greater than 100 µM. For the same compound, the TGI (SK-MEL-28 melanoma) was greater than 100 µM, the TGI (SW-620 colon) was greater than 100 µM and the TGI (UACC-257 melanoma) was greater than 100 µM.

`O=C(NNC(=O)c1cc(/C=C/c2cccc([N+](=O)[O-])c2)[nH]c(=S)n1)Nc1ccc(Cl)cc1` showed a TGI (COLO 205 colon) of 37.2 µM, a TGI (HL-60(TB) leukemia) of 84.1 µM and a TGI (HT29 colon) greater than 100 µM. It also gave a TGI (OVCAR-3 ovarian) greater than 100 µM, a TGI (RXF 393 renal) greater than 100 µM and a TGI (SK-MEL-2 melanoma) greater than 100 µM. For the same compound, the TGI (SK-MEL-28 melanoma) was greater than 100 µM and the TGI (UACC-257 melanoma) was greater than 100 µM.

`Cc1nc(Nc2ccc([N+](=O)[O-])cc2)sc1C(/C=C/c1ccc(N(C)C)cc1)=N/NC(=O)c1ccccc1` showed a TGI (COLO 205 colon) greater than 100 µM, a TGI (HL-60(TB) leukemia) greater than 100 µM and a TGI (HT29 colon) greater than 100 µM. For the same compound, the TGI (OVCAR-3 ovarian) was greater than 100 µM, the TGI (RXF 393 renal) was greater than 100 µM and the TGI (SK-MEL-2 melanoma) was greater than 100 µM. The TGI (SK-MEL-28 melanoma) was greater than 100 µM, the TGI (SW-620 colon) was greater than 100 µM and the TGI (UACC-257 melanoma) was greater than 100 µM.

With `c1ccc(COCC2OC3c4ccccc4COC3C2OCc2ccccc2)cc1` (stereo not given) the TGI (COLO 205 colon) was greater than 100 µM, the TGI (HT29 colon) was greater than 100 µM and the TGI (OVCAR-3 ovarian) was greater than 100 µM. It also gave a TGI (RXF 393 renal) greater than 100 µM, a TGI (SK-MEL-2 melanoma) greater than 100 µM and a TGI (SK-MEL-28 melanoma) greater than 100 µM. For the same compound, the TGI (SW-620 colon) was greater than 100 µM and the TGI (UACC-257 melanoma) was greater than 100 µM.

For `N#CC1(C=O)c2ccccc2C=CN1C(=O)c1ccccc1` (stereo not given), the TGI (COLO 205 colon) was greater than 100 µM, the TGI (HL-60(TB) leukemia) was 45.9 µM and the TGI (HT29 colon) was greater than 100 µM. For the same compound, the TGI (OVCAR-3 ovarian) was 52.8 µM, the TGI (RXF 393 renal) was 53.8 µM and the TGI (SK-MEL-2 melanoma) was greater than 100 µM. The TGI (SK-MEL-28 melanoma) was greater than 100 µM, the TGI (SW-620 colon) was 19.3 µM and the TGI (UACC-257 melanoma) was greater than 100 µM.

`Cn1c2c(c3ccccc31)CCN(CCCCN1CCN(c3cccc(Cl)c3)CC1)C2=O` showed a TGI (COLO 205 colon) of 11.2 µM, a TGI (HL-60(TB) leukemia) of 18.9 µM and a TGI (HT29 colon) of 10.5 µM. The TGI (OVCAR-3 ovarian) was 34 µM, the TGI (SK-MEL-2 melanoma) was 31.1 µM and the TGI (SK-MEL-28 melanoma) was 20.1 µM. The TGI (SW-620 colon) was 26.4 µM and the TGI (UACC-257 melanoma) was 19.8 µM.

Compound `CC(=O)[O-].O=C([CH-]C(=O)c1ccccc1)c1ccccc1.O=C([CH-]C(=O)c1ccccc1)c1ccccc1.[Y+3]` has a GI50 (COLO 205 colon) of 8.61 µM, a TGI (COLO 205 colon) of 22.1 µM and a GI50 (HL-60(TB) leukemia) of 2.44 µM. The TGI (HL-60(TB) leukemia) was 10.8 µM, the GI50 (HT29 colon) was 7.69 µM and the TGI (HT29 colon) was 20.7 µM. For the same compound, the GI50 (OVCAR-3 ovarian) was 3.12 µM, the TGI (OVCAR-3 ovarian) was 15.8 µM and the GI50 (SK-MEL-2 melanoma) was 2.85 µM. It also gave a TGI (SK-MEL-2 melanoma) of 9.69 µM, a GI50 (SK-MEL-28 melanoma) of 8.34 µM and a TGI (SK-MEL-28 melanoma) of 39 µM. It also gave a GI50 (SW-620 colon) of 6.18 µM, a TGI (SW-620 colon) of 46 µM and a GI50 (UACC-257 melanoma) of 9.8 µM. It also gave a TGI (UACC-257 melanoma) of 31.7 µM.

For `O=C1C2c3[nH]c4ccccc4c3[C@@H]3CCCCC3C2C(=O)N1c1ccccc1` (stereo not given in full), the TGI (COLO 205 colon) was 33.6 µM, the TGI (HL-60(TB) leukemia) was 47.5 µM and the TGI (HT29 colon) was 37 µM. For the same compound, the TGI (OVCAR-3 ovarian) was 30.1 µM, the TGI (RXF 393 renal) was 32.7 µM and the TGI (SK-MEL-28 melanoma) was 33 µM. The TGI (SW-620 colon) was 38.8 µM.

Work on `CCCCCCCCCCCCN(O)C(=O)c1ccccc1` yielded a TGI (HL-60(TB) leukemia) of 54.8 µM, a TGI (HT29 colon) greater than 100 µM and a TGI (OVCAR-3 ovarian) greater than 100 µM. It also gave a TGI (RXF 393 renal) greater than 100 µM, a TGI (SK-MEL-2 melanoma) greater than 100 µM and a TGI (SK-MEL-28 melanoma) greater than 100 µM. For the same compound, the TGI (SW-620 colon) was greater than 100 µM and the TGI (UACC-257 melanoma) was 49.1 µM.

Compound `CN(C)c1ccc(/C=N\N2C(=O)c3ccccc3C2=O)cc1` has a TGI (HL-60(TB) leukemia) greater than 100 µM, a TGI (HT29 colon) greater than 100 µM and a TGI (OVCAR-3 ovarian) greater than 100 µM. The TGI (RXF 393 renal) was greater than 100 µM, the TGI (SK-MEL-2 melanoma) was greater than 100 µM and the TGI (SK-MEL-28 melanoma) was greater than 100 µM. The TGI (SW-620 colon) was greater than 100 µM and the TGI (UACC-257 melanoma) was greater than 100 µM.

Work on `COC12CC(=O)C(C(C)=O)=C(O)C1(C)c1c(OC(C)=O)c(C)c(O)c(C(C)=O)c1O2` (stereo not given) yielded a TGI (HL-60(TB) leukemia) of 42.5 µM, a TGI (HT29 colon) of 78.7 µM and a TGI (OVCAR-3 ovarian) of 69.9 µM. The TGI (RXF 393 renal) was 62.5 µM, the TGI (SK-MEL-2 melanoma) was 53.6 µM and the TGI (SK-MEL-28 melanoma) was greater than 100 µM. It also gave a TGI (SW-620 colon) greater than 100 µM and a TGI (UACC-257 melanoma) of 91.4 µM.
